Test results taken from BindingDB's records for PubMed 2971798 (University of Pennsylvania, 1988).

Columns and labels:
D(2) dopamine receptor = D(2) dopamine receptor (Canis lupus familiaris, UniProt Q9GJU1)
[1] = target: T1, 5-hydroxytryptamine receptor 2C (Canis lupus familiaris, UniProt Q60F97)
T1 sequence (Q60F97 whole entry): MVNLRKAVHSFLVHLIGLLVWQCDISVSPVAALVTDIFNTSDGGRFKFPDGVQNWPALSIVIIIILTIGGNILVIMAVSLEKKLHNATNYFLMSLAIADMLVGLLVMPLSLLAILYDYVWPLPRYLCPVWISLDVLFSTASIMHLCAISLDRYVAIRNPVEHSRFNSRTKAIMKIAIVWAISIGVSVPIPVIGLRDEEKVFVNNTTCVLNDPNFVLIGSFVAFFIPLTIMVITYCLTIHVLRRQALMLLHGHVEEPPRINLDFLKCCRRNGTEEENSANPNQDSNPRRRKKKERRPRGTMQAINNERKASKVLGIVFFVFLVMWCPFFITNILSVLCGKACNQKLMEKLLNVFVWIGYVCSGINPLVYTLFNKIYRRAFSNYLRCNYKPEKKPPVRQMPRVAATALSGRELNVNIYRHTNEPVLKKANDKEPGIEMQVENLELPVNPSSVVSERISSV

Chain of D(2) dopamine receptor (Q9GJU1 whole entry): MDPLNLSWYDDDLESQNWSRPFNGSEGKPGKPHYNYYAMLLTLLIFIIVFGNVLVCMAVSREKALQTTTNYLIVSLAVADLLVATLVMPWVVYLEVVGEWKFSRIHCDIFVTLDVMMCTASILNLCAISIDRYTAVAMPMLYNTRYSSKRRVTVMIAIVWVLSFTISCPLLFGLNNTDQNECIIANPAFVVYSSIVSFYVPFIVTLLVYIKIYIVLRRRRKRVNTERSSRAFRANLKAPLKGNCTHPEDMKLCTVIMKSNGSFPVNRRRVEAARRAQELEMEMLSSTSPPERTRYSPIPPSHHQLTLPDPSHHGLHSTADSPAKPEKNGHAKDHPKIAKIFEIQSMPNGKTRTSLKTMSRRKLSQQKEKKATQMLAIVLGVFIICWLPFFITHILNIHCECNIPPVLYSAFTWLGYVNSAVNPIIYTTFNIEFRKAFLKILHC

Compound: NCCc1ccc(O)c(O)c1
- Ki (D(2) dopamine receptor): > 10000 nM

Compound: O=C(c1ccc(F)cc1)C1CCN(CCn2c(=O)[nH]c3ccccc3c2=O)CC1 [3-(2-{4-[(4-fluorophenyl)carbonyl]piperidin-1-yl}ethyl)-1,2,3,4-tetrahydroquinazoline-2,4-dione]
- Ki [1]: 13 nM
- Ki (D(2) dopamine receptor): 166 nM

Compound: OCCN1CCN(CC/C=C2/c3ccccc3Sc3ccc(C(F)(F)F)cc32)CC1 [(cis) 2-{4-[3-(2-Trifluoromethyl-thioxanthen-9-ylidene)-propyl]-piperazin-1-yl}-ethanol(Flupentixol)]
- Ki (D(2) dopamine receptor): 30 nM

Compound: CN1CCN2c3ccccc3Cc3ccccc3[C@H]2C1 [MIANSERIN (+)]
- Ki [1]: 2.8 nM
- Ki (D(2) dopamine receptor): 161 nM

Compound: NCCc1c[nH]c2ccc(O)cc12 [[3H]-5-HT]
- Ki (D(2) dopamine receptor): > 10000 nM
